{
  "source": "patent US8183001B2",
  "about": "(priority 2006, dated 2012)",
  "key": {"QF-R [1]": {"molecular_target": "QF-R (Caenorhabditis elegans, UniProt G5ECD3, N259Q/N305R/V261F)", "sequence (G5ECD3 23-506, stated change not applied)": "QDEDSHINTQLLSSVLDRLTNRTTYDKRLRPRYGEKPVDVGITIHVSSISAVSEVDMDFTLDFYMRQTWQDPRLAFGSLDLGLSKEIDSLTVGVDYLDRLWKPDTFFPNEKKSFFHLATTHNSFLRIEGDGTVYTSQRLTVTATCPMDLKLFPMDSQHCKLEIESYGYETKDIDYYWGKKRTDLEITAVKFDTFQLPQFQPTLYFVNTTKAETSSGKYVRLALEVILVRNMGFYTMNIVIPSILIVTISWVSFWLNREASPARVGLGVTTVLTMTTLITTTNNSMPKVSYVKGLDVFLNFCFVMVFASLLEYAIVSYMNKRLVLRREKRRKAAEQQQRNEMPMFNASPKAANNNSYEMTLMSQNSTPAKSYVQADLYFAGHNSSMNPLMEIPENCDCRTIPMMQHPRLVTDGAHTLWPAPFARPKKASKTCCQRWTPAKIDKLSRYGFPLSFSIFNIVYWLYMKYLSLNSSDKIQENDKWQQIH", "type": "cell-based, C. elegans", "conditions": "QF-R; at EC50 GABA", "experimental": "(§1) Electrophysiology: Plasmids containing wild-type and mutagenized GABAA receptor subunits were linearized and transcribed in vitro using T3 RNA polymerase (mMessage mMachine T3 kit, Ambion, Austin Tex.). UNC-49B mRNA was injected into Xenopus laevis oocytes at 0.5 μg/μl either alone, or in a mixture with 0.5 μg/μl UNC-49C. […] The injection volume ranged between 27.6 nl to 50.6 nl. […] Cells were voltage clamped at −60 mV. All recordings were performed at room temperature.\n(§2) The conserved residues were tested in the UNC-49C M1 domain in a similar way. […] To test the importance of these conserved residues, they were substituted into an UNC-49B subunit with the linker mutation N305R to create the ‘QF-R’ subunit (FIG. 3c)."}, "QF-R [2]": {"system": "QF-R", "type": "cell-based, C. elegans", "experimental": "as §1, §2"}, "M1 chimera": {"molecular_target": "M1 chimera (Caenorhabditis elegans, UniProt G5ECD3+G5EE10)", "sequence (G5ECD3 entry or part of it, change not shown)": "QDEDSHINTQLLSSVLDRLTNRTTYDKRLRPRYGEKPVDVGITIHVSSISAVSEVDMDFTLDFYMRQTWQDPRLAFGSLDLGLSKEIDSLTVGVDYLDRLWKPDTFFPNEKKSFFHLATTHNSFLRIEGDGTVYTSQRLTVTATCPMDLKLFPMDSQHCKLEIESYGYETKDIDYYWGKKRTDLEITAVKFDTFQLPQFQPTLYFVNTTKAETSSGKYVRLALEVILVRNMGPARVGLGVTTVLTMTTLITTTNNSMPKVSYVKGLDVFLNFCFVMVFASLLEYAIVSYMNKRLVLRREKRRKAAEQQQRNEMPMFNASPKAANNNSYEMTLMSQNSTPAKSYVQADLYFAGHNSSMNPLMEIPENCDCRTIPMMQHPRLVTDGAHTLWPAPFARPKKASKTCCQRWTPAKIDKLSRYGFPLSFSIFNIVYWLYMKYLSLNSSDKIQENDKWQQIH", "sequence (G5EE10 256-283, change not shown)": "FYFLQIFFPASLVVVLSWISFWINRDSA", "type": "cell-based, C. elegans", "conditions": "at EC50 GABA", "experimental": "as §1"}, "UNC-49B homomer": {"molecular_target": "UNC-49B homomer (Caenorhabditis elegans, UniProt G5ECD3)", "sequence (G5ECD3 entry or part of it)": "as the sequence (G5ECD3 23-506, stated change not applied) above", "type": "cell-based, C. elegans", "conditions": "UNC-49B homomer", "experimental": "as §1"}, "X(T269V)": {"molecular_target": "X(T269V) (Caenorhabditis elegans, UniProt G5ECD3, I262F/M258L/N259Q/N305R/S264A/T257F/T269V/V261F)", "sequence (G5ECD3 23-506, stated change not applied)": "as above", "type": "cell-based, C. elegans", "conditions": "at EC50 GABA", "experimental": "as §1"}, "XY chimera": {"molecular_target": "XY chimera (Caenorhabditis elegans, UniProt G5ECD3, I262F/I265S/I267V/I270L/M258L/N259Q/N305R/S264A/T257F/T269V/V261F/V273I)", "sequence (G5ECD3 23-506, stated change not applied)": "as above", "type": "cell-based, C. elegans", "conditions": "XY chimera; at EC50 GABA", "experimental": "as §1"}, "X(I270L)": {"molecular_target": "X(I270L) (Caenorhabditis elegans, UniProt G5ECD3, I262F/I270L/M258L/N259Q/N305R/S264A/T257F/V261F)", "sequence (G5ECD3 23-506, stated change not applied)": "as above", "type": "cell-based, C. elegans", "conditions": "at EC50 GABA", "experimental": "as §1"}, "N305R": {"molecular_target": "N305R (Caenorhabditis elegans, UniProt G5ECD3, N305R)", "sequence (G5ECD3 23-506, stated change not applied)": "as above", "type": "cell-based, C. elegans", "conditions": "at EC50 GABA", "experimental": "as §1"}, "UNC-49B-PS7": {"molecular_target": "UNC-49B-PS7 (Caenorhabditis elegans, UniProt G5ECD3, I262F/I265S/M258L/N259Q/N305R/S264A/T257F)", "sequence (G5ECD3 23-506, stated change not applied)": "as above", "type": "cell-based, C. elegans", "conditions": "UNC-49B-PS7; at EC50 GABA", "experimental": "as §1"}, "[3]": {"system": "UNC-49B homomers containing the M1 mutations", "test": "Desensitization in oocytes", "type": "cell-based, C. elegans", "conditions": "oocytes expressing UNC-49B homomers containing the M1 mutations"}, "UNC-49B/C heteromer": {"molecular_target": "UNC-49B/C heteromer (Caenorhabditis elegans, UniProt G5ECD3+G5EE10)", "sequence (G5EE10 entry or part of it)": "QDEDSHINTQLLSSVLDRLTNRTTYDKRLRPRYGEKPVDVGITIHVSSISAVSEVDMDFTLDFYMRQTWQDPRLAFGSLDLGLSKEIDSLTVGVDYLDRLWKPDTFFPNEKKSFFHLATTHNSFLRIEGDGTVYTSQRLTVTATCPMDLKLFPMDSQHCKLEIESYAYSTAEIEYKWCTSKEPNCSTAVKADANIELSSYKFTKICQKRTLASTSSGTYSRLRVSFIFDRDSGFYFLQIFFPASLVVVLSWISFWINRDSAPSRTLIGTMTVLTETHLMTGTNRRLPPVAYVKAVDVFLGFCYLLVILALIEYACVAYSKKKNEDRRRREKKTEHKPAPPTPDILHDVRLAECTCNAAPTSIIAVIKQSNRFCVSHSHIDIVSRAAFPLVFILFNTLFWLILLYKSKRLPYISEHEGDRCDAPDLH", "sequence (G5ECD3 entry or part of it)": "as the sequence (G5ECD3 23-506, stated change not applied) above", "type": "cell-based", "conditions": "UNC-49B/C heteromer", "experimental": "as §1"}, "M1-M2-linker chimera": {"molecular_target": "M1-M2-linker chimera (Caenorhabditis elegans, UniProt G5ECD3+G5EE10)", "sequence (G5ECD3 23-506, stated change not applied)": "as above", "sequence (G5EE10 256-315, stated change not applied)": "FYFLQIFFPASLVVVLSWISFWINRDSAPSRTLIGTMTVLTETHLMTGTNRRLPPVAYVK", "type": "cell-based, C. elegans", "conditions": "5 μM PS, 100 μM GABA", "experimental": "as §1\n(§3) The strategy represents a deletion of UNC-49C material from the carboxy to amino terminal end of the transmembrane portion of the subunit, which is then replaced with UNC-49B sequences."}, "M1-M2 chimera": {"molecular_target": "M1-M2 chimera (Caenorhabditis elegans, UniProt G5ECD3+G5EE10)", "sequence (G5ECD3 23-506, change not shown)": "as the sequence (G5ECD3 23-506, stated change not applied) above", "sequence (G5EE10 256-304, change not shown)": "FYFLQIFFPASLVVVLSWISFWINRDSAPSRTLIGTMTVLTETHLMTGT", "test": "Xenopus oocyte two electrode voltage-clamp, GABA-evoked currents", "type": "cell-based, C. elegans", "conditions": "5 μM PS, 1000 μM GABA, versus M1-M2-linker chimera", "experimental": "as §1, §3"}, "Y(T257F/S264A)": {"molecular_target": "Y(T257F/S264A) (Caenorhabditis elegans, UniProt G5ECD3, I265S/I267V/I270L/N259Q/N305R/S264A/T257F/T269V/V261F/V273I)", "sequence (G5ECD3 23-506, stated change not applied)": "as the sequence (G5ECD3 23-506, stated change not applied) above", "type": "cell-based, C. elegans", "experimental": "as §1\n(§4) Important residues in the X segment were tested by substituting UNC-49C residues into the Y chimera. […] These divergent X segment residues were tested by mutating them from UNC-49B to UNC-49C amino acids in the Y chimera background."}, "Y(T257F/M258L)": {"molecular_target": "Y(T257F/M258L) (Caenorhabditis elegans, UniProt G5ECD3, I265S/I267V/I270L/M258L/N259Q/N305R/T257F/T269V/V261F/V273I)", "sequence (G5ECD3 23-506, stated change not applied)": "as above", "type": "cell-based, C. elegans", "conditions": "at EC50 GABA", "experimental": "as §1, §4"}, "Y(T257F/M258L/S264A)": {"molecular_target": "Y(T257F/M258L/S264A) (Caenorhabditis elegans, UniProt G5ECD3, I265S/I267V/I270L/M258L/N259Q/N305R/S264A/T257F/T269V/V261F/V273I)", "sequence (G5ECD3 23-506, stated change not applied)": "as above", "type": "cell-based, C. elegans", "conditions": "at EC50 GABA", "experimental": "as §1, §4"}, "Y(S264A)": {"molecular_target": "Y(S264A) (Caenorhabditis elegans, UniProt G5ECD3, I265S/I267V/I270L/N259Q/N305R/S264A/T269V/V261F/V273I)", "sequence (G5ECD3 23-506, stated change not applied)": "as above", "type": "cell-based, C. elegans", "conditions": "at EC50 GABA", "experimental": "as §1, §4"}, "Y(T257F)": {"molecular_target": "Y(T257F) (Caenorhabditis elegans, UniProt G5ECD3, I265S/I267V/I270L/N259Q/N305R/T257F/T269V/V261F/V273I)", "sequence (G5ECD3 23-506, stated change not applied)": "as above", "type": "cell-based, C. elegans", "experimental": "as §1, §4"}},
  "data": [
    {"substance": "pregnenolone sulfate [PS]", "values": [
      {"measurement": "PS Slope coefficient", "setting": "QF-R [1]", "result": "1.5 ± 0.5 (n = 6)"},
      {"measurement": "fold more sensitive to PS than N305R", "setting": "QF-R [2]; QF-R versus N305R", "result": 2.1, "unit": "fold"},
      {"measurement": "fold less sensitive to PS than the double chimera", "setting": "QF-R [2]; QF-R versus double chimera", "result": 6.7, "unit": "fold"},
      {"measurement": "PS Slope coefficient", "setting": "M1 chimera", "result": "0.9 ± 0.1 (n = 4)"},
      {"measurement": "inhibition of GABA-evoked current", "setting": "UNC-49B homomer; 100 μM PS, EC50 GABA", "result": 40, "unit": "%"},
      {"measurement": "PS Slope coefficient", "setting": "UNC-49B homomer; at EC50 GABA", "result": 0.7},
      {"measurement": "PS Slope coefficient", "setting": "X(T269V)", "result": "1.2 ± 0.1"},
      {"measurement": "PS Slope coefficient", "setting": "XY chimera", "result": "1.6 ± 0.2"},
      {"measurement": "PS Slope coefficient", "setting": "X(I270L)", "result": "1.5 ± 0.1"},
      {"measurement": "PS Slope coefficient", "setting": "N305R", "result": "1.9 ± 0.2 (n = 4)"},
      {"measurement": "PS Slope coefficient", "setting": "UNC-49B-PS7", "result": "1.0 ± 0.0"},
      {"measurement": "effect of PS on desensitization", "setting": "[3]", "result": "accelerated desensitization"},
      {"measurement": "inhibition of GABA-evoked current", "setting": "UNC-49B/C heteromer; 100 μM PS, EC50 GABA", "result": 95, "unit": "%"},
      {"measurement": "PS Slope coefficient", "setting": "UNC-49B/C heteromer; at EC50 GABA", "result": "0.9 ± 0.1 (n = 4)"},
      {"measurement": "PS sensitivity", "setting": "M1-M2-linker chimera", "result": "equally sensitive to 5 μM PS as the TM chimera"},
      {"measurement": "PS sensitivity", "setting": "M1-M2 chimera", "result": "significantly less PS sensitive"},
      {"measurement": "reduction of the holding current by PS alone, relative to EC50 GABA-evoked current", "setting": "Y(T257F/S264A); T257F/S264A point mutant, 100 μM PS", "result": "6-20%"},
      {"measurement": "PS Slope coefficient", "setting": "Y(T257F/S264A); Y(T257F/S264A), at EC50 GABA", "result": "0.9 ± 0.08"},
      {"measurement": "PS Slope coefficient", "setting": "Y(T257F/M258L)", "result": "2.3 ± 0.2"},
      {"measurement": "PS Slope coefficient", "setting": "Y(T257F/M258L/S264A)", "result": "1.44 ± 0.1"},
      {"measurement": "PS Slope coefficient", "setting": "Y(S264A)", "result": "5.3 ± 1.8"},
      {"measurement": "reduction of the holding current by PS alone, relative to EC50 GABA-evoked current", "setting": "Y(T257F); T257F point mutant, 100 μM PS", "result": "6-20%"},
      {"measurement": "PS Slope coefficient", "setting": "Y(T257F); Y(T257F), at EC50 GABA", "result": "1.3 ± 0.06"}
    ]}
  ]
}
